Data set [1] has as its system enveloped virus .phi. 6. The conditions noted are these: cited from earlier work.
Data set [2] concerns HSV. As to conditions: cited from earlier work; for extracellular inactivation of HSV: 0.5 mM.
For data set [3], the system named is hepatitis B virus (HBV). The conditions noted are these: 5-250 μg/mL, Kessler et al.; cited from earlier work.
In data set [4] the test system is HBV DNA polymerase. The conditions noted are these: 5-250 μg/mL, Kessler et al.; cited from earlier work.
Data set [5] has as its system enveloped viruses. The conditions noted are these: cited from earlier work.
The subject of data set [6] is viruses having no lipids. The conditions noted are these: cited from earlier work.
The subject of data set [7] is human immunodeficiency virus (HIV). As to conditions: cited from earlier work.
For data set [8], the system named is HBV surface antigen. The conditions noted are these: Pottage et al., cited from earlier work.
Data set [9] deals with cellular protein synthesis. As to conditions: Pottage et al., cited from earlier work.
Data set [10] relates to HSV-2. In words: Intracellular activity, inhibition of plaque forming units, HSV-2. In kind it is cell-based, Herpes simplex virus type 2.
Data set [11] has as its system HSV-2. In words: Extracellular activity, inhibition of plaque forming units, HSV-2.
Data set [12] can be described thus: Inhibition of cell growth (microscopic cell count). The format is cell-based, Buffalo green monkey. As to conditions: monkey, bgm-70 cells, read-out: % Reduction of cell growth. How it is done: a MASHII cell harvester and placed in a scintillation counter to determin
incorporation of labelled compound and level of toxicity. BGM 70 cells ar
seeded at a concentration of […] per well in a 24well tissue cultur
plate. Cells are planted in 2 mL of growth medium with or without the tes
compound and are incubated at 37° C. for 38 hours. At 24 hours
medium is removed from onehalf of the plates and the cells are fixed and
stained with crystal violet. The remaining cultures are fixed and stained
^b BGM 70 cells are counted microscopically and comparisons are made.
Experiments are performed blindly by assigning each compound concentratio
a letter code. The code is broken after the cells are counted.
The effect of the compounds on the inhibition of cell growth is determined using BGM-70 cells grown in vitro. For this assay, BGM 70 cells are seeded at a concentration of approximately 70 cells per well in 24-well tissue culture plates. Cells are planted in 2 ml of growth medium with or without the test compound and are incubated at 37° C. for 48 hours. At 24 hours, cells from one half of the plates are fixed and stained with crystal violet. The remaining cultures are fixed and stained at 48 hours. Cells are counted microscopically and comparisons are made between non-treated (control) and treated cells.

Data set [13] deals with Buffalo green monkey kidney (BGM 70) cells. Kind of data set: [3H]-thymidine uptake cytotoxicity. The format is cell-based. The conditions noted are these: for inhibition at 0.4 µM / inhibition at 1.6 µM / inhibition at 2.5 µM / inhibition at 10 µM: Chlorocebus sabaeus, read-out: % Inhibition of [3H]-Thymidine Incorporated; for inhibition at 0.4 µM: 0.4 μmol/L; for inhibition at 1.6 µM: 1.6 μmol/L; for inhibition at 2.5 µM: 2.5 μmol/L; for inhibition at 10 µM: 10.0 μmol/L.

For data set [14], the system named is herpes simplex virus type 1 (HSV-1). The conditions noted are these: cited from earlier work.

Where two headings read alike, the source gives them in different places.

In the case of `C/C(=C\CO)CCC[C@H](C)CCC[C@H](C)CCCC(C)C` [phytol], in [1], the “concentration inhibiting enveloped virus .phi. 6” value is 10^-6 to 10^-4 mM. Also, in data set [2], the “concentration inhibiting HSV” value is 0.01 to 0.1 mM.
Take `C[C@@H]1[C@H](O)[C@@H](C)/C=C/C=C/C=C/C=C/C=C/C=C/C=C/[C@H](O[C@@H]2O[C@H](C)[C@@H](O)[C@H](N)[C@@H]2O)C[C@@H]2O[C@](O)(C[C@@H](O)C[C@@H](O)[C@H](O)CC[C@@H](O)C[C@@H](O)CC(=O)O[C@H]1C)C[C@H](O)[C@H]2C(=O)O` [amphotericin B]: in [3], the “effect on HBV particle / envelope” value is “changes in electron microscopic appearance of the virus, increased penetration of negative stain into the lipid envelope, disruption of the particle” and the “increase in density of HBV” value is 1.165 to 1.225 g/mL. For the same compound, the “HBV DNA polymerase activity” value in data set [4] is “concentration dependent increase in HBV DNA polymerase activity”.
Regarding `Cc1cc(C(C)(C)C)c(O)c(C(C)(C)C)c1` [BHT, butylated hydroxytoluene], the “inactivation of viruses that contain lipids” value in data set [5] was “readily inactivated”. Further, in [6], the “inactivation of viruses having no lipids” value is “comparatively insensitive”. The IC50 in [2] (Snipes et al., read-out: concentration causing 50% inactivation of HSV) is 70 to 160 µM.
On to `CCOC(=O)C(C)(C)Oc1ccc(Cl)cc1` [clofibrate, clofibric acid ethyl ester], for which the antiherpetic activity entry in data set [2] (Steinhart et al.) is “antiherpetic activity”.
As to nonoxynol-9, in [7], the “inactivation of HIV” value is given as “inactivate HIV”.
Take `CC(=O)N1CCN(c2ccc(OCC3COC(Cn4ccnc4)(c4ccc(Cl)cc4Cl)O3)cc2)CC1` (stereo not drawn) [Ketoconazole]: in data set [8] (10 μg/mL), the “inhibition in HBV surface antigen production” value is reported as 72%. The “HBV surface antigen production” value in data set [8] is reported as “non-specifically inhibits HBV surface antigen production”. In [9] (10 μg/mL), the “reduction in protein synthesis” value is listed as 38%. In [9], the cellular protein synthesis result was “decrease in cellular protein synthesis”.
On to `O=c1oc2ccc(O)cc2c(O)c1O` [Compound 7], for which the inhibition at 10 µM in data set [10] (Human alphaherpesvirus 2, HSV-2, 10.0 μmol/L, read-out: % Inhibition of PFU, IA (intracellular activity)) was 10 ± 3.2%; in [11] (Human alphaherpesvirus 2, read-out: % Inhibition of PFU, EA (extracellular activity), HSV-2, 10.0 μmol/L) it was 86 ± 0.5%; in data set [13] (24 h) it was 44.3 ± 9.1%; in data set [13] (48 h), 46.6 ± 8%; in data set [13] (72 h), 48.4 ± 14%. The inhibition at 24 h, 0.4 µM in [12] (24 h, 0.4 μmol/L) came out at 14.2 ± 6.2%. Moreover, in data set [12] (24 h, 2.5 μmol/L), the inhibition at 24 h, 2.5 µM came to 0.4%. The inhibition at 24 h, 10 µM in data set [12] (24 h, 10.0 μmol/L) was 1.6 ± 0.2%. Moreover, the inhibition at 24 h, 50 µM in [12] (24 h, 50.0 μmol/L) came out at 18.4 ± 6.1%. Further, the inhibition at 24 h, 100 µM in data set [12] (24 h, 100.0 μmol/L) was 52 ± 8%. For the same compound, the inhibition at 48 h, 2.5 µM in data set [12] (48 h, 2.5 μmol/L) amounted to 1 ± 0.4%. Also, the inhibition at 48 h, 10 µM in data set [12] (48 h, 10.0 μmol/L) was found to be 2 ± 1%. For the same compound, the inhibition at 48 h, 50 µM in [12] (48 h, 50.0 μmol/L) turned out to be 22.1 ± 8.4%. The inhibition at 48 h, 100 µM in data set [12] (48 h, 100.0 μmol/L) stood at 66 ± 11.1%. For the same compound, the inhibition at 0.4 µM in data set [13] (24 h) came out at 13.6 ± 6.1%; in data set [13] (48 h) it was 13.9 ± 6.1%; in data set [13] (72 h) it was 13.9 ± 6.1%. Besides, the inhibition at 1.6 µM in [13] (24 h) amounted to 28.6 ± 12%; in [13] (48 h), 31.7 ± 8.4%; in data set [13] (72 h), 31.6 ± 8.4%. The inhibition at 2.5 µM in data set [13] (24 h) came to 36.9 ± 8.6%; in data set [13] (48 h), 37.2 ± 5.1%; in [13] (72 h), 39.3 ± 13.1%. In addition, in [13] (at concentrations of 10 μM or less), the “toxicity ([3H]-thymidine uptake and/or cell growth)” value is listed as “display toxicity”.
For the compound `CCCCCCCCCCCCO` [dodecanol], the “extracellular inactivation of HSV” value in data set [2] is 90-100%.
Turning to `CCCCCCCCCCO` [decanol], the “extracellular inactivation of HSV” value in data set [2] is 90-100%.
Take `CCCCC[C@@H](O)[C@H]1C(=O)O[C@H](C)[C@@H](O)/C=C/C=C/C=C/C=C/C=C(\C)[C@@H](O)C[C@H](O)C[C@H](O)C[C@H](O)C[C@H](O)C[C@H](O)C[C@@H]1O` [filipin]: the “inactivation of enveloped viruses” value in [5] is given as “inactivates enveloped viruses”.
Take benzalkonium chloride: the “inactivation of HIV” value in data set [7] is “inactivate HIV”. The “concentration destroying the infectiousness of HIV” value in [7] (general fluids of seropositive individuals) is on record as 0.05%.
As for `CCCCCCCCCCCCCCO` [tetradecanol], the “extracellular inactivation of HSV” value in [2] was 90-100%.
As to `CC(C)(Oc1ccc(Cl)cc1)C(=O)O` [clofibric acid, reference compound], the inhibition at 500 µM in data set [10] (Human alphaherpesvirus 2, 500 μM, one experiment, n=3 wells, P<0.02, read-out: inhibition (PFU), virus-infected cells) came out at 66 ± 6%. In addition, the “anti-HSV-1 activity (inhibition)” value in data set [14] (500 μM, Mehl) is 45%. Besides, in [14] (BGM 70 cells), the “inhibition of replication of HSV-1” value was “inhibit replication of herpes simplex virus type 1 (HSV-1)”. Further, the “inhibition, extracellular treatment of HSV-2” value in data set [11] (500 μM, P>0.05) is “no significant (P>0.05) inhibition”.

Source of the values: US5185366A, “Method for treatment and prevention of diseases caused by enveloped viruses, including herpes simplex virus types 1 and 2 diseases, using 3,4-dihydroxy-2H-benzopyran-2H-one” (Ohio State University Research Foundation, priority 1990, dated 1993).
